Test results from patent EP4664463A1, “COMPUTER-IMPLEMENTED METHOD FOR OLFACTORY PROPERTY PREDICTION” (Givaudan SA, priority 2024, dated 2025).
Several values for one entry are separate records, joined by “and”; a condition that tells them apart may be missing. Equal values may be shown once. Read-outs that look alike come from different tables or passages of the source. Values belong to the molecule of their own block, whether it stands above or below them.

Columns and labels:
OR1N2 [1] = target: T1, OR1N2 (Homo sapiens, UniProt Q8NGR9); type: cell-based; conditions: changed C-term. SEQ ID NO: 86
T1 construct: expressed in transfected cells; host or cells: HEK293T cells stably expressing human RTP1S (V227I) and RTP2 (L220R)
Description: (§1) To create an expression plasmid, an OR coding sequence fused at the end of TM7 to the desired C-terminus sequence was synthesized by a DNA synthesis service provider (BioCat GmbH, Germany) and inserted into pcDNA3.1(+) (Invitrogen, MA, USA) downstream of the CMV promoter sequence (SEQ ID NO: 82) using BamHI and Notl restriction sites. All the synthetic OR nucleotide sequences described below in Examples 1-15 further contained at their N-terminus a nucleotide sequence encoding a signal peptide (mmLucy-FLAG-rho, SeQ ID NOs: 80, 81) and at the C-terminus the bgh terminator sequence (SEQ ID NO: 83). All the OR expression plasmids also contain a Kozak sequence (GCCACC) between the BamHI restriction site and the start codon of the signal peptide. These plasmids thus contain a constitutively expressed OR gene.
T1 sequence (Q8NGR9 with tags, fused parts or gaps): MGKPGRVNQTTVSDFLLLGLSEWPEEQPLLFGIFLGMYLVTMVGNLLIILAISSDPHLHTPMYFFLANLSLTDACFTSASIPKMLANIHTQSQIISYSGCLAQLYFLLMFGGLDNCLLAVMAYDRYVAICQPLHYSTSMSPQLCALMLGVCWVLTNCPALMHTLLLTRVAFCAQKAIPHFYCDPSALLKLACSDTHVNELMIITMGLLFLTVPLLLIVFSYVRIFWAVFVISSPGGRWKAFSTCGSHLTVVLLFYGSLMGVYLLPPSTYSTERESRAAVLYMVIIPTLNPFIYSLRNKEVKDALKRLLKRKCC

OR1N2 [2] = target: T2, OR1N2 (Homo sapiens, UniProt Q8NGR9); type: cell-based; conditions: wild-type
T2 construct: expressed in transfected cells; host or cells: HEK293T cells stably expressing human RTP1S (V227I) and RTP2 (L220R)
Description: as §1
T2 sequence (Q8NGR9 whole entry): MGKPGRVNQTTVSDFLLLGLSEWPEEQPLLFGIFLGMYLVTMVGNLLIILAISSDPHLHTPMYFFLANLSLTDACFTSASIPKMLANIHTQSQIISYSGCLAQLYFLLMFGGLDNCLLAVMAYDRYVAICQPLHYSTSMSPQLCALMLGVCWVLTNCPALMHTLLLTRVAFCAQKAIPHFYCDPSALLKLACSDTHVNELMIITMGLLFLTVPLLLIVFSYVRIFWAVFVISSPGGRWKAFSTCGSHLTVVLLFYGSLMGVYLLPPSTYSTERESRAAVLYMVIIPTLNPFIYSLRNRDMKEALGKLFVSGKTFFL

[3] = target: T3, OR identified in the library screening (receptor named per line) (Homo sapiens, UniProt Q8NGJ0); assay: Confirmatory dose-response of library hits, wild-type OR vs OR with C-terminus SEQ ID NO: 221 (Table 17); type: cell-based
T3 construct: expressed in transfected cells; host or cells: HEK293T stably expressing human RTP1S(V227I) and RTP2(L220R) (general method)
Description: (§3) Selected ligand - OR pairs were then tested in a confirmatory test with a dose response analysis.
(§4) Dose-response analysis with the cognate ligand was then performed for both the wild-type and the modified sequence.

OR7A17 [4] = target: T4, OR7A17 (Homo sapiens, UniProt O14581); assay: Luciferase dose-response, wild-type vs changed C-terminus (SEQ ID NO: 86); type: cell-based; conditions: wild-type
T4 construct: expressed in transfected cells; host or cells: HEK293T cells stably expressing human RTP1S (V227I) and RTP2 (L220R)
Description: as §1
(§2) Thus, optimal improvement of activity is not achieved by the approach of just using the parent C-terminus and mutating it towards consensus, but rather by exchanging the C-terminal sequence with the optimized sequence described herein.
T4 sequence (O14581 whole entry): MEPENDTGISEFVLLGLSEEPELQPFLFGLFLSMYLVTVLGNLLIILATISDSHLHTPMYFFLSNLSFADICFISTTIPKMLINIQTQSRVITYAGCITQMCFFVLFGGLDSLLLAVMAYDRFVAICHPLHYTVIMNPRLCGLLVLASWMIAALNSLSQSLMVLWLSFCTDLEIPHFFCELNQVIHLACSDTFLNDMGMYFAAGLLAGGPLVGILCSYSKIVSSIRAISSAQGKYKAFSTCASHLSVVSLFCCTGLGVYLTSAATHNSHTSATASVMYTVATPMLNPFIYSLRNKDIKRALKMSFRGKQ

OR7A17 [5] = target: T5, OR7A17 (Homo sapiens, UniProt O14581, D296E/I297V/R299D); assay: as above; type: cell-based
T5 construct: expressed in transfected cells; host or cells: HEK293T cells stably expressing human RTP1S (V227I) and RTP2 (L220R)
Description: as §1, §2

OR7A17 [6] = assay: as above; type: cell-based, human
Description: as §1, §2

OR7A17 [7] = target: T6, OR7A17 (Homo sapiens, UniProt O14581); assay: Detection of Ambrofix spiked into Geranium oil on OR7A17 with SEQ ID 221; type: cell-based
T6 construct: expressed in transfected cells; host or cells: HEK293T cells stably expressing human RTP1S (V227I) and RTP2 (L220R) (general approach)
T6 sequence (O14581 with tags, fused parts or gaps): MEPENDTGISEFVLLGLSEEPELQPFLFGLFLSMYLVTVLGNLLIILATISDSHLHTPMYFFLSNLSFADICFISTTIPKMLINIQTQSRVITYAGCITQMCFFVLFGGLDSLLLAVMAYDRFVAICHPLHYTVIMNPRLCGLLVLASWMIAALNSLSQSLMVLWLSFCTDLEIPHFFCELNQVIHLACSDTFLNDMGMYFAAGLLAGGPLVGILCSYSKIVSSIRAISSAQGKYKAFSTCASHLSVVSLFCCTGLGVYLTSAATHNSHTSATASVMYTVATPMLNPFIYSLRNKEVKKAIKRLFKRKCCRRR
Description: These mixtures were tested with OR7A17 with a C-terminal domain of SEQ ID 221 (a DNA sequence encoding the modified receptor is included as SEQ ID NO: 611) as described in example 20.

[8] = system: library of all class II OR with modified C-terminal domain RNKEVKKAIKRLFKRKCCRRR (SEQ ID NO: 221); assay: Screening of the library of all class II OR with single odorants (luciferase); type: cell-based, human; conditions: full class II OR library (n = 408); maximal non-cytotoxic concentration
Description: All human class II OR and all key genetic variants of these OR were synthesized with a sequence coding for an identical modified C-terminal domain […] (SEQ ID NO: 221) in the vector pcDNA3.1(+) to generate a library of all class II OR with an improved C-terminal domain. Class II OR library members with modified C-terminal domains
Parallel transfection experiments were conducted with all these plasmids (n = 408) and cells expressing the different OR were stimulated with one given ligand at a time, tested at the maximal, clearly non-cytotoxic concentration. In total 26 different ligands were tested on the full library of class II receptors.

[9] = target: T7, OR identified in the library screening (receptor named per line) (Homo sapiens, UniProt Q8NGN4); assay: Confirmatory dose-response of library hits, wild-type OR vs OR with C-terminus SEQ ID NO: 221 (Table 17); type: cell-based; conditions: receptor OR10G9, wild-type sequence; read-out: Potency EC50 wild-type (converted)
T7 construct: expressed in transfected cells; host or cells: HEK293T stably expressing human RTP1S(V227I) and RTP2(L220R) (general method)
Description: as §3, §4

[10] = target: T8, OR identified in the library screening (receptor named per line) (Homo sapiens, UniProt Q8WZ84); assay: as above; type: cell-based; conditions: receptor OR8D1, wild-type sequence; read-out: Potency EC50 wild-type (converted)
T8 construct: expressed in transfected cells; host or cells: HEK293T stably expressing human RTP1S(V227I) and RTP2(L220R) (general method)
Description: as §3, §4

OR9Q2 [11] = target: T9, OR9Q2 (Homo sapiens, UniProt Q8NGE9); assay: Luciferase dose-response, wild-type vs changed C-terminus (SEQ ID NO: 86); type: cell-based; conditions: changed C-term SEQ ID NO: 86; read-out: Potency EC50
T9 construct: expressed in transfected cells; host or cells: HEK293T cells stably expressing human RTP1S (V227I) and RTP2 (L220R)
T9 sequence (Q8NGE9 with tags, fused parts or gaps): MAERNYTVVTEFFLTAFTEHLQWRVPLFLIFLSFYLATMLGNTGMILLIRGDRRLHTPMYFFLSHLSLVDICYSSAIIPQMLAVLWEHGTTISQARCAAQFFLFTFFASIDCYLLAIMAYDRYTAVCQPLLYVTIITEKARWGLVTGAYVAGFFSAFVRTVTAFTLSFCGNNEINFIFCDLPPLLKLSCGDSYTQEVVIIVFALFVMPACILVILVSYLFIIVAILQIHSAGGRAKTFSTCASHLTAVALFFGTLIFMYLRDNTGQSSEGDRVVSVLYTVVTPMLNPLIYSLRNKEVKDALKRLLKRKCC

OR9Q2 [12] = target: T10, OR9Q2 (Homo sapiens, UniProt Q8NGE9); assay: as above; type: cell-based; conditions: wild-type; read-out: Potency EC50
T10 construct: expressed in transfected cells; host or cells: HEK293T cells stably expressing human RTP1S (V227I) and RTP2 (L220R)
T10 sequence (Q8NGE9 whole entry): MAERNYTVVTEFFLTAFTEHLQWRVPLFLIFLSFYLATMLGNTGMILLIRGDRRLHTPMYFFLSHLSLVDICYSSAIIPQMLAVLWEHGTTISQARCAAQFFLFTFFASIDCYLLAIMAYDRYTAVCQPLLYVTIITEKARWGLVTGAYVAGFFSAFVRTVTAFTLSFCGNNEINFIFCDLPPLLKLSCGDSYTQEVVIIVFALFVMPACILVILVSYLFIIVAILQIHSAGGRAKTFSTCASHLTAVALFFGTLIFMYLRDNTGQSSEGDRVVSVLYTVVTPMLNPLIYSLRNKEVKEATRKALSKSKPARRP

[13] = system: library of all class I OR with C-terminal domain RNKQIRDALKRLLKRKCCRRR (SEQ ID NO: 741); assay: Screening of the library of all class I OR with carboxylic acid ligands (luciferase); type: cell-based, human; conditions: full class I OR library (n = 77)
Description: All human class I OR and all key genetic variants of these OR were synthesized with a sequence coding for the identical C-terminal domain […] (SEQ ID NO: 741) in the vector pcDNA3.1(+) to generate a library of all class I OR with an improved C-terminal domain. Class I OR library members
Parallel transfection experiments were conducted with all these plasmids (n = 77, SEQ ID NO: 760, OR51F1 was excluded due to poor plasmid yield) and cells expressing the different OR were stimulated with one given ligand at a time. In total 10 different carboxylic acids ligands were tested on the full library of class I receptors.

T5 sequence (O14581 with tags, fused parts or gaps D296E/I297V/R299D): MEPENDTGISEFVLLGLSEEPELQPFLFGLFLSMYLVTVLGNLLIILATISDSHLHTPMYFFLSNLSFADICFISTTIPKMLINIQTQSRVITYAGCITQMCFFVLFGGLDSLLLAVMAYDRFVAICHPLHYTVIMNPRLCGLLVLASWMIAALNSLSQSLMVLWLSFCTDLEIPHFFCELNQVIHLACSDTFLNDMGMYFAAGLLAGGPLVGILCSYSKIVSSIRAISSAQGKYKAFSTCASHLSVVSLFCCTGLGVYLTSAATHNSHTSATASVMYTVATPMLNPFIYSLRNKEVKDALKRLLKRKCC

Structure (SMILES): O=C1CCCCCCCC=CCCCCCCO1 [Ambrettolide]
Detection threshold; concentration for 2-fold induction (OR1N2 [1]): 0.26 µM | Detection threshold; concentration for 2-fold induction (OR1N2 [2]): 1.33 µM

Structure (SMILES): CC(=O)/C=C/C1=C(C)CCCC1(C)C [β-lonone]
EC50 [3]: 48.3 µM

Structure (SMILES): CC1(C)CCCC2(C)C1CCC1(C)OCCC12 (stereo not shown) [Ambrofix]
Detection threshold; concentration for 2-fold induction (OR7A17 [4]): 1.9 µM | EC50 (OR7A17 [4]; read-out: Potency EC50): 5.6 µM | EC50 (OR7A17 [5]; changed C-term SEQ ID NO: 86, read-out: Potency EC50): 1.3 µM | Detection threshold; concentration for 2-fold induction (OR7A17 [5]; changed C-term. SEQ ID NO: 86): 0.1 µM | Comments on efficacy (OR7A17 [6]): 2-fold lower maximal induction for wild-type | Fold-improvement potency (OR7A17 [6]): 4.2 | Fold-improvement threshold (OR7A17 [6]): 18 and 18.4 | lowering of detection threshold vs wild-type (OR7A17 [6]; OR7A17 C-terminus altered towards consensus): 3 fold | detection threshold for two-fold induction (OR7A17 [6]; OR7A17 C-terminus altered towards consensus (5 amino acids)): 0.6 µM | detectable concentration of target ingredient against a complex matrix (OR7A17 [7]): ≤ 0.1%

Structure (SMILES): O=C(OCc1ccccc1)c1ccccc1O [Benzyl salicylate]
Activated OR and OR variants [8]: OR2AG2(Y28C)

EC50 [9]: 91.4 µM
Structure (SMILES): CCOc1cc(C)ccc1O [Ultravan il]

EC50 [10]: 19 µM
Structure (SMILES): CC1=C(O)C(=O)OC1C (stereo not shown) [Sotolon e]

Structure (SMILES): Cc1ccc(O)cc1 [Para-Cresol]
EC50 (OR9Q2 [11]): 2.8 µM | EC50 (OR9Q2 [12]): 30.7 µM

Activated OR and OR variants [13]: No activation observed
Structure (SMILES): CC(C)CC(=O)O [3-Methylbutanoic acid]
